According to patent US7632957B2, “Esterification reaction products and cosmetic products” (The Nisshin Oillio Group, Ltd., priority 2005, dated 2009):

Legend:
Format in all cases: physicochemical
[1] = Dispersibility test (titanium oxide, octyl palmitate; wetting point and fluid point); conditions: sample 4 g + titanium oxide 20 g, octyl palmitate added; for (4) Dispersibility Wetting point: lower is better
Description: A sample (4 g) and titanium oxide (20 g) are mixed, and then octyl palmitate (manufactured by The Nisshin OilliO Group, Ltd. under the trade name Salacos P-8) is gradually added thereto. The point when the mixture become uniform as a whole is determined as the wetting point, and the point when the mixture starts to flow by tilting the whole mixture is determined as the fluid point. The amounts of octyl palmitate added until to reach the respective points are measured and used as the wetting point value and the fluid point value.
A lower wetting point value or a smaller difference between the wetting point value and the fluid point value means higher pigment-dispersing properties of the sample.

[2] = Water-retaining property test (mass loss after 24 hours at 40° C.); conditions: reduced mass after 24 hours at 40° C., lid off; lower is better
Description: (3) Water-Retaining Property Test
A measurement sample (1 g) and Vaseline (9 g) are mixed and vigorously stirred (500 rpm, 3 minutes) in a thermostat chamber at 40° C. while dropwise adding 10 g of purified water thereto (the ratio of purified water to the mixture of sample and Vaseline was 1:1). When the sample become smooth, 10 g of the sample is uniformly applied onto a Petri dish so as to have a thickness of 0.5 to 1.5 mm and then put in a thermostat chamber at 40° C. with the lid off. After 24 hours, the sample is taken out from the chamber. The mass after the still standing is measured, and the reduced mass after the standing is calculated and is expressed as a percentage to the mass of the applied sample. A lower value means better water-retaining properties of the sample.

[3] = Water resistant ability (waterproof-film-forming ability), contact angle before and after washing; conditions: film on glass plate, before and after washing with flowing tap water 25 mL/s, 1 minute; smaller is better
Description: (6) Water Resistant Ability (Waterproof-Film-Forming Ability)
A sample is dissolved in chloroform to prepare a sample solution containing 10% by mass of the sample. The prepared sample solution is applied onto a washed glass plate. Then, the solvent is removed to form a film, and one drop of distilled water is dropped onto the formed film. The contact angle between the film surface and the water droplet is measured. After the measurement, the film is washed with flowing tap water (25 mL/s, 1 minute). The water resistant ability is evaluated by comparing the contact angles before and after the washing. A smaller difference in the contact angle before and after the washing means better water resistant ability.

[4] = Water-holding property test 2 (differential scanning calorimetry of sample:water 7:3); conditions: sample:water 7:3, DSC 2° C./min from −15° C. to 45° C.; no peak = good water-holding
Description: (2) Water-Holding Property Test 2
A measurement sample and water are mixed at a mass ratio of 7:3 and are vigorously stirred (500 rpm, 3 minutes) in a thermostatic chamber at 70° C. to obtain a water-holding substance. The obtained water-holding substance is analyzed with a differential scanning calorimeter (device name “DSC 6200”, manufactured by Seiko Instruments Inc.). That is, the temperature of the water-holding substance is raised at a rate of 2° C./min in the range from −15° C. to 45° C. to obtain a differential scanning calorimetry curve, and the curve is confirmed whether an endothermic peak due to water at around 0° C. is present or not. When this endothermic peak is not observed, the water-holding properties are judged to be good.

[5] = Water-holding property test 1 (water taken up by sample/Vaseline mixture at 40° C.); conditions: sample 1 g + Vaseline 9 g, mass of water to mass of mixture, higher is better
Description: (1) Water-Holding Property Test 1
The water-holding property test of esterification reaction products is conducted with reference to the lanolin water retention value test in British Pharmacopoeia (BP) as follows:
A measurement sample (1 g) and Vaseline (9 g) are mixed and vigorously stirred (200 to 300 rpm) in a thermostat chamber at 40° C. while dropwise adding purified water thereto. The point when water is no longer being received is determined as the end-point and is expressed as a percentage of mass of water to mass of the mixture. A higher value means better water-holding properties of the sample.

[6] = Solubility of 4-tert-butyl-4′-methoxydibenzoylmethane when mixed with esterification reaction product; conditions: mixed with esterification reaction product (Production Example 1)

(4) Dispersibility Fluid point [1] [% by mass] | (4) Dispersibility Wetting point [1] [% by mass] | (3) Water-retaining properties [2] [% by mass] | Water resistant ability (difference in contact angle (°)) [3] [°] | endothermic peak due to water at around 0° C. [4] | (1) Water-holding properties [5] [% by mass] | solubility of 4-tert-butyl-4′-methoxydibenzoylmethane [6] | Compound
22 | 3 | 3.0 | 47.4 | detected | 200 | – | CC(C)CCCCCCCCCCCCCCCOC(=O)CC(O)C(=O)OCCCCCCCCCCCCCCCC(C)C (stereo not shown) [Diisostearyl malate, diisostearyl malate]
9 | 2 | 1.9 | – | detected | 320 | – | CCCCCCC(O)CCCCCCCCCCC(=O)O[C@H]1CC[C@@]2(C)C(=CC[C@H]3[C@@H]4CC[C@H]([C@H](C)CCCC(C)C)[C@@]4(C)CC[C@@H]32)C1 (stereo partly shown) [Cholesteryl hydroxystearate, cholesteryl hydroxystearate]
– | – | – | – | – | – | improved | COc1ccc(C(=O)CC(=O)c2ccc(C(C)(C)C)cc2)cc1 [4-tert-butyl-4′-methoxydibenzoylmethane]
– | – | – | 21.0 | – | – | – | polyglyceryl triisostearate
